Consider seven compounds from DBAASP.

Converted amounts (≈) assume the structure as drawn. A value given as a limit tells only on which side of the number the result lay.

Common to all, as to assay: ≥ marks a high value that may be exact or a test limit, other limits are often not marked, values filed in µg/mL are converted to µM
For experiment [1], the system named is Enterococcus faecalis NCTC 12697.
Experiment [2] has as its system Staphylococcus aureus ATCC 12493.
Experiment [3] has as its system Staphylococcus aureus.
Experiment [4] deals with Candida albicans NCYC 1467.
Experiment [5] concerns Klebsiella pneumoniae ATCC 43816.
The test system of experiment [6] is Pseudomonas aeruginosa ATCC 27853.
Experiment [7] deals with Staphylococcus aureus NCTC 10788.
Experiment [8] deals with Escherichia coli NCTC 10418.
The subject of experiment [9] is Pseudomonas aeruginosa ATCC 9027.
The subject of experiment [10] is Staphylococcus aureus ATCC 6538.
For experiment [11], the system named is Bacillus subtilis ATCC 9372.
Experiment [12] deals with Proteus vulgaris NCTC 4635.
In experiment [13] the test system is Escherichia coli ATCC 8739.
In experiment [14] the test system is Staphylococcus epidermidis C621.
The subject of experiment [15] is Escherichia coli UB1005.
For experiment [16], the system named is Escherichia coli DC2.
Experiment [17] deals with Corynebacterium xerosis C875.
Experiment [18] has as its system Staphylococcus epidermidis ATCC 12228.
Experiment [19] has as its system Salmonella enterica subsp. enterica serovar Typhimurium ATCC 14028.
In experiment [20] the test system is Staphylococcus aureus TK784.
In experiment [21] the test system is Micrococcus luteus ATCC 10240.
Experiment [22] concerns Shigella dysenteriae ATCC 9752.
Experiment [23] concerns Escherichia coli ATCC 25922.
Experiment [24] has as its system Staphylococcus aureus ATCC 6538P.
Experiment [25] has as its system Bacillus subtilis ATCC 6633.
The subject of experiment [26] is Klebsiella pneumoniae ATCC 10031.

As a reminder, the MIC is the smallest concentration in the dilution series that meets the test's criterion for growth inhibition. Low values mean greater potency, high ones weaker potency.

`CC[C@H](C)[C@H](NC(=O)[C@H](CO)NC(=O)[C@H](CCCCN)NC(=O)[C@H](Cc1c[nH]c2ccccc12)NC(=O)[C@H](CC(C)C)NC(=O)[C@H](C)N)C(=O)N[C@@H](CC(C)C)C(=O)N[C@@H](CCCCN)C(=O)N[C@@H](CC(N)=O)C(=O)N[C@H](C(=O)NCC(=O)N[C@@H](CCCCN)C(=O)N[C@@H](C)C(=O)N[C@@H](C)C(=O)NCC(=O)N[C@@H](CCCCN)C(=O)N[C@@H](C)C(=O)N[C@H](C(=O)N[C@@H](CC(C)C)C(N)=O)C(C)C)C(C)C` [ALWKSILKNVGKAAGKAVL]: the MIC was ≥ 256 µM in [1]; 8 µM (≈ 15.7 µg/mL) in [2]; 11.3 µM (≈ 22.2 µg/mL) in experiment [3]; 2 µM (≈ 3.93 µg/mL) in experiment [4]; ≥ 32 µM in [5]; 4 µM (≈ 7.87 µg/mL) in experiment [6]. Besides, the MIC in experiment [7] and in experiment [8] was 2 µM (≈ 3.93 µg/mL) each time.

Consider `CC[C@H](C)[C@H](NC(=O)[C@@H](NC(=O)[C@H](CO)NC(=O)[C@H](C)NC(=O)[C@@H](NC(=O)[C@H](CCCCN)NC(=O)[C@H](CCCCN)NC(=O)[C@@H](NC(=O)[C@@H](NC(=O)[C@H](C)NC(=O)[C@H](Cc1ccccc1)NC(=O)[C@H](CC(C)C)NC(=O)CN)C(C)C)[C@@H](C)CC)C(C)C)C(C)C)C(=O)NCC(=O)NCC(=O)O` [GLFAVIKKVASVIGG], for which the MIC in experiment [9] is 351 µM (≈ 512 µg/mL); in experiment [10], > 351 µM; in experiment [11], ≥ 351 µM; in experiment [12], ≥ 351 µM; in experiment [13], ≥ 351 µM.

For `CC[C@H](C)[C@H](NC(=O)[C@@H](NC(=O)[C@H](CC(=O)O)NC(=O)[C@H](Cc1ccccc1)NC(=O)[C@H](CC(C)C)NC(=O)CN)C(C)C)C(=O)N[C@@H](CCCCN)C(=O)N[C@@H](CCCCN)C(=O)N[C@H](C(=O)N[C@@H](C)C(=O)N[C@@H](CO)C(=O)O)C(C)C` [GLFDVIKKVAS], the MIC in experiment [9] was 870 µM (≈ 1020 µg/mL); in [10] it was > 870 µM; in experiment [11], ≥ 435 µM; in experiment [12], ≥ 870 µM; in [13], ≥ 870 µM.

Regarding `C[C@H](NC(=O)[C@H](C)NC(=O)[C@H](C)NC(=O)[C@H](CCCCN)NC(=O)[C@H](C)NC(=O)[C@H](C)NC(=O)[C@H](C)NC(=O)[C@H](CCCCN)NC(=O)[C@@H](N)CCCCN)C(=O)N[C@@H](C)C(=O)N[C@@H](C)C(=O)N[C@@H](CCCCN)C(=O)N[C@@H](C)C(=O)N[C@@H](C)C(=O)N[C@@H](Cc1c[nH]c2ccccc12)C(=O)N[C@@H](C)C(=O)N[C@@H](C)C(=O)N[C@@H](CCCCN)C(=O)N[C@@H](C)C(=O)N[C@@H](C)C(=O)N[C@@H](C)C(=O)N[C@@H](CCCCN)C(=O)N[C@@H](CCCCN)C(=O)N[C@@H](CCCCN)C(=O)N[C@@H](CCCCN)C(N)=O` [KKAAAKAAAAAKAAWAAKAAAKKKK], the MIC in experiment [14] is ≥ 64 µM; in experiment [15] it was ≥ 64 µM; in [16], ≥ 64 µM; in experiment [17] it was 16 µM (≈ 38.8 µg/mL).

Consider `CSCC[C@H](NC(=O)[C@H](C)NC(=O)[C@H](C)NC(=O)[C@H](C)NC(=O)[C@H](CCCCN)NC(=O)[C@@H](N)CCCCN)C(=O)N[C@@H](C)C(=O)N[C@@H](C)C(=O)N[C@@H](C)C(=O)N[C@@H](C)C(=O)N[C@@H](C)C(=O)N[C@@H](CCSC)C(=O)N[C@@H](C)C(=O)N[C@@H](C)C(=O)N[C@@H](Cc1c[nH]c2ccccc12)C(=O)N[C@@H](C)C(=O)N[C@@H](C)C(=O)N[C@@H](CCSC)C(=O)N[C@@H](C)C(=O)N[C@@H](C)C(=O)N[C@@H](C)C(=O)N[C@@H](CCCCN)C(=O)N[C@@H](CCCCN)C(=O)N[C@@H](CCCCN)C(=O)N[C@@H](CCCCN)C(N)=O` [KKAAAMAAAAAMAAWAAMAAAKKKK], for which the MIC was 16 µM (≈ 38.9 µg/mL) in experiment [14], ≥ 32 µM in experiment [15], ≥ 32 µM in [16] and 0.5 µM (≈ 1.22 µg/mL) in experiment [17].

Take `CC(C)C[C@H](NC(=O)[C@H](CC(C)C)NC(=O)[C@H](CCCCN)NC(=O)[C@H](CCCCN)NC(=O)[C@H](CC(C)C)NC(=O)[C@H](CC(C)C)NC(=O)[C@H](CCCCN)NC(=O)[C@H](CCCCN)NC(=O)[C@H](CC(C)C)NC(=O)[C@H](Cc1c[nH]c2ccccc12)NC(=O)[C@@H](N)CCCCN)C(N)=O` [KWLKKLLKKLL]: the MIC in [18] was found to be 1.42 µM (≈ 2 µg/mL); in experiment [19], 1.42 µM (≈ 2 µg/mL); in experiment [20] it was 5.67 µM (≈ 7.99 µg/mL); in [21], 2.84 µM (≈ 4 µg/mL); in [22] it was 0.709 µM (≈ 0.999 µg/mL); in experiment [23], 1.42 µM (≈ 2 µg/mL). Besides, the MIC in [6] worked out at 5.67 µM (≈ 7.99 µg/mL); in experiment [24], 1.42 µM (≈ 2 µg/mL); in experiment [25] it was 1.42 µM (≈ 2 µg/mL); in [26], 1.42 µM (≈ 2 µg/mL).

For `CC(C)C[C@H](NC(=O)[C@H](CC(C)C)NC(=O)[C@H](Cc1c[nH]c2ccccc12)NC(=O)[C@H](CCCCN)NC(=O)[C@H](CC(C)C)NC(=O)[C@H](CC(C)C)NC(=O)[C@H](Cc1c[nH]c2ccccc12)NC(=O)[C@H](CCCCN)NC(=O)[C@@H](N)CC(C)C)C(N)=O` [LKWLLKWLL], the MIC came to 1.07 µM (≈ 1.3 µg/mL) in experiment [18]; 8.25 µM (≈ 9.99 µg/mL) in experiment [19]; 2.06 µM (≈ 2.5 µg/mL) in experiment [20]; 2.06 µM (≈ 2.5 µg/mL) in experiment [21]; 2.06 µM (≈ 2.5 µg/mL) in [22]; 4.12 µM (≈ 5 µg/mL) in [23]. Also, the MIC is 8.25 µM (≈ 9.99 µg/mL) in experiment [6], 1.07 µM (≈ 1.3 µg/mL) in experiment [24], 1.07 µM (≈ 1.3 µg/mL) in experiment [25] and 4.12 µM (≈ 5 µg/mL) in experiment [26].
